According to ChEMBL document CHEMBL1201862, “PubChem BioAssay data set” (2004):
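Grown in 96-well plates, cells were treated for 48 hours with each compound at five concentrations. Insufficient inhibition: endpoint recorded as highest concentration tested. GI50 marks 50% less growth.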 The source made the active and inactive calls. Rule as the data show it: active = GI50 up to about 1.1 µM and inactive = higher.

Assays:
Test in all cases: NCI anticancer screen, dose series, 48 h
[1] = test system: RPMI-8226
[2] = test system: UACC-62
[3] = test system: TK-10
[4] = test system: LOX IMVI
[5] = test system: MOLT-4
[6] = test system: U-251
[7] = test system: UACC-257
[8] = test system: HOP-92
[9] = test system: SK-MEL-28
[10] = test system: SK-MEL-5
[11] = test system: SK-MEL-2
[12] = test system: SK-OV-3
[13] = test system: COLO 205
[14] = test system: HL-60
[15] = test system: KM12
[16] = test system: CCRF-CEM
[17] = test system: SN12C
[18] = test system: HCT-15
[19] = test system: 786-0
[20] = test system: Malme-3M

| Structure (SMILES) | GI50 [1] | GI50 [2] | GI50 [3] | GI50 [4] | GI50 [5] | GI50 [6] | GI50 [7] | GI50 [8] | GI50 [9] | GI50 [10] | GI50 [11] | GI50 [12] | GI50 [13] | GI50 [14] | GI50 [15] | GI50 [16] | GI50 [17] | GI50 [18] [µM] | GI50 [19] | GI50 [20] |
| --- | --- | --- | --- | --- | --- | --- | --- | --- | --- | --- | --- | --- | --- | --- | --- | --- | --- | --- | --- | --- |
| CC(=O)OC(C)(C)C1CCC(C)(C(O)COc2ccc(CCNC(=O)c3ccccc3)cc2)O1 (stereo not given) | 20.7 µM (inactive) | 30.8 µM (inactive) | 63.8 µM (inactive) | 31.4 µM (inactive) | 14.8 µM (inactive) | 53.3 µM (inactive) | > 100 µM (inactive) | > 100 µM (inactive) | 79.8 µM (inactive) | 11.6 µM (inactive) | > 100 µM (inactive) | > 100 µM (inactive) | > 100 µM (inactive) | 15.5 µM (inactive) | 60.8 µM (inactive) | 21.6 µM (inactive) | > 100 µM (inactive) | 46 | > 100 µM (inactive) | 63.5 µM (inactive) |
| Cc1cc(C)c2c(=N)c3ccccc3n(CCCCCCO)c2n1 | 1.38 µM (inactive) | 2.64 µM (inactive) | 3.15 µM (inactive) | 1.91 µM (inactive) | 3.78 µM (inactive) | 3.51 µM (inactive) | 4.75 µM (inactive) | 4.26 µM (inactive) | 5.71 µM (inactive) | 2.55 µM (inactive) | 3.27 µM (inactive) | 5.2 µM (inactive) | 1.35 µM (inactive) | 2.9 µM (inactive) | 3.94 µM (inactive) | 1.22 µM (inactive) | 1.95 µM (inactive) | 2.88 | 2.47 µM (inactive) | 2.63 µM (inactive) |
| CN1C(c2ccccc2)CC(O)CC1c1ccccc1 (stereo not given) | > 100 µM (inactive) | > 100 µM (inactive) | > 100 µM (inactive) | > 100 µM (inactive) | > 100 µM (inactive) | > 100 µM (inactive) | > 100 µM (inactive) | > 100 µM (inactive) | > 100 µM (inactive) | > 100 µM (inactive) | > 100 µM (inactive) | > 100 µM (inactive) | > 100 µM (inactive) | > 100 µM (inactive) | > 100 µM (inactive) | > 100 µM (inactive) | > 100 µM (inactive) | > 100 | > 100 µM (inactive) | > 100 µM (inactive) |
